The text below walks through data of ChEMBL document CHEMBL4311981, “Synthesis, anticancer activity, and molecular modeling of 1,4-naphthoquinones that inhibit MKK7 and Cdc25” (Eur J Med Chem, 2019).

Activity calls are given as the source filed them. The calls are words filed in the database; no cut-off is given here.

In data set [1] the target is T1, M-phase inducer phosphatase 2 (Homo sapiens, UniProt P30305).
T1 sequence (P30305 whole entry): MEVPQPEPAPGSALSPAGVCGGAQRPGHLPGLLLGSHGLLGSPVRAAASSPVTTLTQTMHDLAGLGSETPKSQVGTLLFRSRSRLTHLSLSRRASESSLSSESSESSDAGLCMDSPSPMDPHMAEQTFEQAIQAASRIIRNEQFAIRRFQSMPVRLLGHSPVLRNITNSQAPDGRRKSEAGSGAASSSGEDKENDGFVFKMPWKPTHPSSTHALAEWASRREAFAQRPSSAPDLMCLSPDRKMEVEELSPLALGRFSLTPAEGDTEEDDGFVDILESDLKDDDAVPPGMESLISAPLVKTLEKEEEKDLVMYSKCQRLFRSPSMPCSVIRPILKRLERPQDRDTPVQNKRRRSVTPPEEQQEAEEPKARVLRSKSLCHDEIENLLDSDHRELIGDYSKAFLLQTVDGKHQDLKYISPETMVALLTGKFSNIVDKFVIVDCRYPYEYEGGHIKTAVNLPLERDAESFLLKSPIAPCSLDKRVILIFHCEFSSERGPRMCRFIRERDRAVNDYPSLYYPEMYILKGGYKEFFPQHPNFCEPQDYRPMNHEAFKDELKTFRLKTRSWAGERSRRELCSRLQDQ
Description: Inhibition of recombinant Cdc25B (unknown origin) using OMFP as substrate measured every 30 sec for 10 mins by fluorometric assay

A further data set has as its system LS174T. Nature of the data set: Cytotoxicity against human LS174T cells assessed as reduction in cell viability at <50 uM incubated for 24 hrs by CellTiter-Glo luminescent cell viability assay. The format is functional, cell-based.
In a further data set the test system is A549. Kind of data set: Cytotoxicity against human A549 cells assessed as reduction in cell viability at <50 uM incubated for 24 hrs by CellTiter-Glo luminescent cell viability assay. The data set is classed as functional, cell-based.
For data set [2], the target named is T2, Neutrophil elastase (Homo sapiens) (UniProt P08246).
T2 sequence (whole entry): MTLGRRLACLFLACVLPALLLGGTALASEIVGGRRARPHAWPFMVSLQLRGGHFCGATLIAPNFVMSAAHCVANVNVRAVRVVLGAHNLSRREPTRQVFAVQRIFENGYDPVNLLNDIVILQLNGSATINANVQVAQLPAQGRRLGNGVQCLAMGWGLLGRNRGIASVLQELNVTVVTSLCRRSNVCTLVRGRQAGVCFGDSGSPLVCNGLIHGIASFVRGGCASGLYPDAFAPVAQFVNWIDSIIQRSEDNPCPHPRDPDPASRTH
Kind of data set: Inhibition of recombinant HNE (unknown origin) at <50 uM using N-methylsuccinyl-Ala-Ala-Pro-Val-7-amino-4-methylcoumarin, as a substrate measured every 30 sec for 10 mins by fluorometric assay.

Data set [3] concerns SW982. Kind of data set: Cytotoxicity against human SW982 cells assessed as reduction in cell viability at <50 uM incubated for 24 hrs by CellTiter-Glo luminescent cell viability assay. The format is functional, cell-based.
The target in data set [4] is T3, M-phase inducer phosphatase 1 (Homo sapiens, UniProt P30304).
T3 sequence (P30304 whole entry): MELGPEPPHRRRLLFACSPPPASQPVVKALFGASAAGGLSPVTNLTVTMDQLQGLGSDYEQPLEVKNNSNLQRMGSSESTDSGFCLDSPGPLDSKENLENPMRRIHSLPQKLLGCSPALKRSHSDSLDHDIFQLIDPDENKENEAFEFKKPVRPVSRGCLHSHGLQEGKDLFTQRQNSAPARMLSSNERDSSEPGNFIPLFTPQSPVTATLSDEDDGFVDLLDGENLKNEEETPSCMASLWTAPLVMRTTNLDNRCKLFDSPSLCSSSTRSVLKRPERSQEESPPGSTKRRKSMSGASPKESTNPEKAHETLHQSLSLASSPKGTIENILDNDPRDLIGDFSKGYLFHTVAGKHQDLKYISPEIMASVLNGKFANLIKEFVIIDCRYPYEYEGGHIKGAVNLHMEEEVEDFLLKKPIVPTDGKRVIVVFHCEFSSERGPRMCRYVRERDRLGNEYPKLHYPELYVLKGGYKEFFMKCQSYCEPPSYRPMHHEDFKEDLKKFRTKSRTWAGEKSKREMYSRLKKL
Description: Inhibition of recombinant Cdc25A (unknown origin) using OMFP as substrate measured every 30 sec for 10 mins by fluorometric assay

Data set [5] has as its system PBMC. Nature of the data set: Cytotoxicity against human PBMC cells assessed as reduction in cell viability at <50 uM incubated for 24 hrs by CellTiter-Glo luminescent cell viability assay. The format is cell-based.
Data set [6] concerns Jurkat. Kind of data set: cells. As to conditions: Homo sapiens, 24 h.
Description: Cytotoxicity against human Jurkat cells assessed as reduction in cell viability incubated for 24 hrs by CellTiter-Glo luminescent cell viability assay
The subject of data set [7] is THP-1. Nature of the data set: Cytotoxicity against human THP1 cells assessed as reduction in cell viability incubated for 24 hrs by CellTiter-Glo luminescent cell viability assay. The format is functional, cell-based. As to conditions: THP-1, 24 h.
The test system of data set [8] is MONO-MAC-6. Kind of data set: Cytotoxicity against human MONO-MAC-6 cells assessed as reduction in cell viability incubated for 24 hrs by CellTiter-Glo luminescent cell viability assay. The format is functional, cell-based. As to conditions: MONO-MAC-6, 24 h.
Data set [9] relates to U-937. Nature of the data set: Cytotoxicity against human U937 cells assessed as reduction in cell viability incubated for 24 hrs by CellTiter-Glo luminescent cell viability assay. As to conditions: U-937, 24 h. The format is functional, cell-based.
Data set [10] concerns the target T4, Dual specificity mitogen-activated protein kinase kinase 7 (Homo sapiens) (UniProt O14733).
T4 sequence (whole entry): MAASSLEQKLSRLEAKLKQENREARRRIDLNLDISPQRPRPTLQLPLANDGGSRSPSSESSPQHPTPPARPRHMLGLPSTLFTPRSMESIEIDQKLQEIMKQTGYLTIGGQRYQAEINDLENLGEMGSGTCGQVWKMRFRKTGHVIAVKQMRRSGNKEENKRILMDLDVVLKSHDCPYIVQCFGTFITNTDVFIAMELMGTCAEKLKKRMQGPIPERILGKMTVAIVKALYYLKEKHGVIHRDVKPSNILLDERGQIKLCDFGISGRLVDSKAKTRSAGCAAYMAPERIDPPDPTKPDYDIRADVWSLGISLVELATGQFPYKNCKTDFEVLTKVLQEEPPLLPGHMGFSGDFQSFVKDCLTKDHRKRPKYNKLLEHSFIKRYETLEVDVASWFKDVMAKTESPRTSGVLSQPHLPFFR
Nature of the data set: Binding affinity to MKK7 (unknown origin) expressed in HEK293 cells assessed as dissociation constant at <30 uM by kinomescan method. The format is cell-based.

Data set [11] deals with HL-60. Kind of data set: Cytotoxicity against human HL60 cells assessed as reduction in cell viability incubated for 24 hrs by CellTiter-Glo luminescent cell viability assay. The format is functional, cell-based. The note with it: HL-60, 24 h.
The next data set has as its target T5, Neutrophil elastase (Homo sapiens, UniProt P08246).
T5 sequence (P08246 whole entry): T2 sequence (whole entry)
Nature of the data set: Inhibition of recombinant HNE (unknown origin) using N-methylsuccinyl-Ala-Ala-Pro-Val-7-amino-4-methylcoumarin, as a substrate measured every 30 sec for 10 mins by fluorometric assay.

The subject of data set [12] is MCF7. Nature of the data set: Cytotoxicity against human MCF7 cells assessed as reduction in cell viability incubated for 24 hrs by CellTiter-Glo luminescent cell viability assay. The format is functional, cell-based. The note with it: MCF7, 24 h.
Data set [13] relates to PBMC. Kind of data set: Cytotoxicity against human PBMC cells assessed as reduction in cell viability incubated for 24 hrs by CellTiter-Glo luminescent cell viability assay. The data set is classed as cell-based. As to conditions: read-out: IC50.
Data set [14] deals with SW982. Kind of data set: Cytotoxicity against human SW982 cells assessed as reduction in cell viability incubated for 24 hrs by CellTiter-Glo luminescent cell viability assay. The data set is classed as functional, cell-based. As to conditions: SW982, 24 h.
For data set [15], the target named is T6, Dual specificity mitogen-activated protein kinase kinase 7 (Homo sapiens, UniProt O14733).
T6 sequence (O14733 whole entry): T4 sequence (whole entry)
Kind of data set: biochemical.
Description: Binding affinity to MKK7 (unknown origin) expressed in HEK293 cells assessed as dissociation constant by kinomescan method

Data set [16] concerns THP-1. Kind of data set: Cytotoxicity against human THP1 cells assessed as reduction in cell viability at <50 uM incubated for 24 hrs by CellTiter-Glo luminescent cell viability assay. The data set is classed as functional, cell-based.
The test system of data set [17] is HL-60. Nature of the data set: Cytotoxicity against human HL60 cells assessed as reduction in cell viability at <50 uM incubated for 24 hrs by CellTiter-Glo luminescent cell viability assay. The data set is classed as functional, cell-based.
The subject of data set [18] is Jurkat. Nature of the data set: Cytotoxicity against human Jurkat cells assessed as reduction in cell viability at <50 uM incubated for 24 hrs by CellTiter-Glo luminescent cell viability assay. The format is functional, cell-based.
In data set [19] the test system is MCF7. Kind of data set: Cytotoxicity against human MCF7 cells assessed as reduction in cell viability at <50 uM incubated for 24 hrs by CellTiter-Glo luminescent cell viability assay. The format is functional, cell-based.
In data set [20] the test system is MONO-MAC-6. Kind of data set: Cytotoxicity against human MONO-MAC-6 cells assessed as reduction in cell viability at <50 uM incubated for 24 hrs by CellTiter-Glo luminescent cell viability assay. The data set is classed as functional, cell-based.
Data set [21] concerns U-937. Kind of data set: Cytotoxicity against human U937 cells assessed as reduction in cell viability at <50 uM incubated for 24 hrs by CellTiter-Glo luminescent cell viability assay. The format is functional, cell-based.

As to `COC1=C(C)C(=O)c2ccccc2C1=O`, the IC50 in [1] is 33.1 µM; in data set [4], 22.3 µM; with Jurkat [6], 49.2 µM; in the data set on THP-1 [7], 47.3 µM; in the data set on MONO-MAC-6 [8] it was 18.4 µM; with U-937 [9], 35.1 µM. For the same compound, in the data set with HL-60 [11], the IC50 amounted to 20.4 µM. Besides, the result (with LS174T; with A549; in the data set with SW982 [3]; in [10]) was inactive. Moreover, the inhibition entry in data set [2] was “inactive”. Further, the Activity entry in the data set on PBMC [5] was “Non-Toxic”.

Take `CC(SC1=CC(=O)c2ccccc2C1=O)C(=O)O` (configuration not stated): the IC50 came to 5.2 µM in [1]; 36.1 µM on Neutrophil elastase; 5.4 µM in [4]; 17.9 µM in the data set with Jurkat [6]; 27.9 µM in the data set on MCF7 [12]; 23.8 µM in the data set with PBMC [13]. The IC50 with SW982 [14] is 21.1 µM; in the data set with MONO-MAC-6 [8], 43.6 µM; with U-937 [9], 34.6 µM; in the data set on HL-60 [11], 20.5 µM. This compound returned a Kd in data set [15] of 2.1 µM.

With `CC(C)=CCC1=C(O)C(=O)c2ccccc2C1=O` [LAPACHOL], the values for the concentration for half-maximal inhibition (IC50) in data set [1] and in data set [4] were 42.7 µM and 33.2 µM, respectively. Also, the result in the data set with LS174T, in the data set on THP-1 [16], in the data set with A549, in the data set on HL-60 [17], with SW982 [3] and in the data set with Jurkat [18] was inactive. Further, the outcome (in the data set on MCF7 [19]; in the data set on MONO-MAC-6 [20]; in [10]; with U-937 [21]) was inactive. The inhibition result in [2] is “inactive”. Further, the Activity result with PBMC [5] is “Non-Toxic”.

Consider `COc1ccc(OC)c2c1C(=O)C=C(SCCC(=O)O)C2=O`, for which the IC50 in data set [1] amounted to 7.8 µM; in [4], 26 µM; in the data set on Jurkat [6] it was 21.3 µM; in the data set with THP-1 [7], 33.3 µM; in the data set on MONO-MAC-6 [8], 12.8 µM; in the data set with U-937 [9] it was 26.6 µM. For the same compound, in the data set on HL-60 [11], the concentration for half-maximal inhibition (IC50) was 28.7 µM. Further, the outcome (in the data set on LS174T; in the data set with A549; in the data set on SW982 [3]; in the data set on MCF7 [19]; in data set [10]) was inactive. In addition, in data set [2], the inhibition entry is “inactive”. The Activity result in the data set with PBMC [5] was “Non-Toxic”.
